Counter-ions that a name gives are not always drawn.
How the values were obtained:
[1] = test system: HCMV Towne; experiment: HCMV plaque reduction assay in HFFs; format: cell-based, Human Cytomegalovirus
Method: (§1) Human Foreskin Fibroblasts (HFFs) passage 12–16 (ATCC, CRL-2088) and mouse embryonic fibroblasts (MEFs) passage 9–14 (ATCC, CRL-1658) were grown in Dulbecco's Modified Eagle Medium (DMEM) containing 10% fetal bovine serum (FBS) (Gibco, Carlsbad, CA) in a 5% CO2 incubator at 37°C. Infection with HCMV or HSV was performed in HFFs, and infection with mouse CMV was performed in MEFs. For HCMV, cells were seeded in either a 96-well plate or 100 mm culture plates (Corning Costar, Sigma Aldrich) at 0.5 or 2 million cells /plate. Following 90 minute adsorption, media was removed and cells were washed with PBS. Media containing 4% FBS and compounds were added to each well. Infected treated HFFs were collected at 72 hpi and lysates were assayed for luciferase activity using a luciferase assay kit (Promega, Madison, WI) on GloMax-Multi+ Detection System (Promega). In second cycle assays, supernatants were collected from all conditions of the first cycle at 96 hpi and used for infection of fresh HFFs in 96-well plates. Luciferase activity was measured 72 h following second cycle infection. For HSV1-KOS/Dlux/oriS, a luciferase assay was performed at 24 hpi. Plaque assays were performed with clinical isolates of HSV2 and HCMV Towne (ATCC VR-977). HFFs were seeded at 3 million cells/plate in 12-well plates and infected 24 h later with HSV2 at 200 PFU/well. For HCMV or MCMV, HFFs or MEFs were seeded at 0.5 or 2 million cells /plate in a 12-well plate and infected 24 hours later at 100 PFU/well. Following virus adsorption (60 min and 90 min for HSV and HCMV, respectively), virus was aspirated, and DMEM containing 4% fetal bovine serum (FBS) with (for HSV) or without (for HCMV/MCMV) 0.5% carboxymethyl-cellulose, were added with the compounds at indicated concentrations into triplicate wells. After incubation at 37°C for 10 days (for HCMV), 3 days for MCMV or 2 days (for HSV), the overlay was removed and plaques were counted after crystal violet staining.

[2] = in vivo; set-up: species or system BALB/c mice
Method: The dosing solution was prepared in saline with a dosing volume of 10 mL/kg. Blood and tissue samples including liver, lung and spleen were collected at 0, 0.083, 0.25, 0.5, 0.75, 1, 2, 3, 4, 7, 24, 30, 48, 72 and 96 hr. […] Pharmacokinetic parameters (Cmax, Tmax, AUC and t1/2) were calculated with a non-compartmental approach using the Pharsight WinNonLin software (Ver. 6.4). The experimental procedures were approved by the Animal Care and Use Committee of Division of Veterinary Resources, NIH.

[3] = test system: HCMV; experiment: Virus entry, pp65 immunofluorescence assay; format: cell-based, Human Cytomegalovirus; conditions: emetine 75 nM, GCV 10 μM, CpG 2006 10 μM, added 24 h prior to infection
[4] = test system: HCMV Towne; experiment: Add-on and removal studies, plaque titration; format: cell-based, Human Cytomegalovirus; conditions: supernatants at 72 hpi
Method: For time-of-removal studies, medium containing the compounds was removed at 0, 6, 12, 24, 36 and 48 hpi, cells were washed three times with PBS, and drug-free medium was added. Culture supernatants were collected at 72 hpi and titration of infectious virus was performed after 14 days by plaque assay.

[5] = test system: pp28-luciferase HCMV Towne; experiment: Second cycle infection luciferase assay; format: cell-based, Human Cytomegalovirus; conditions: emetine 75 nM
Method: as §1, with “Plaque assays were performed with clinical isolates of HSV2 and HCMV Towne (ATCC VR-977). HFFs were seeded at 3 million cells/plate in 12-well plates and infected 24 h later with HSV2 at 200 PFU/well. For HCMV or MCMV, HFFs or MEFs were seeded at 0.5 or 2 million cells /plate in a 12-well plate and infected 24 hours later at 100 PFU/well. Following virus adsorption (60 min and 90 min for HSV and HCMV, respectively), virus was aspirated, and DMEM containing 4% fetal bovine serum (FBS) with (for HSV) or without (for HCMV/MCMV) 0.5% carboxymethyl-cellulose, were added with the compounds at indicated concentrations into triplicate wells.” left out

[6] = 0.083 h after single oral 0.1 mg/kg, BALB/c mice
[7] = 0.25 h after single oral 0.1 mg/kg, BALB/c mice
[8] = 0.5 h after single oral 0.1 mg/kg, BALB/c mice
[9] = 1 h after single oral 0.1 mg/kg, BALB/c mice
[10] = 2 h after single oral 0.1 mg/kg, BALB/c mice
[11] = 3 h after single oral 0.1 mg/kg, BALB/c mice
[12] = 4 h after single oral 0.1 mg/kg, BALB/c mice
[13] = 7 h after single oral 0.1 mg/kg, BALB/c mice
[14] = 24 h after single oral 0.1 mg/kg, BALB/c mice
[15] = 30 h after single oral 0.1 mg/kg, BALB/c mice
[16] = 48 h after single oral 0.1 mg/kg, BALB/c mice
[17] = 72 h after single oral 0.1 mg/kg, BALB/c mice
[18] = 96 h after single oral 0.1 mg/kg, BALB/c mice

CC[C@H]1CN2CCc3cc(OC)c(OC)cc3[C@@H]2C[C@@H]1C[C@H]1NCCc2cc(OC)c(OC)cc21 [emetine, emetine dihydrochloride hydrate]
EC50 ([1]; Human betaherpesvirus 5, read-out: Mean EC50 ± SD): 68 nM
reduction in the number and size of plaques ([1]; emetine 75 nM, 2 million cells/plate as compared to 0.5 million cells/plate): 30 fold
LIVER Conc. [2, 6]: 0.007 µmol/kg
LIVER Mean Conc. [2, 6]: 3.59 ng/g
LUNG Conc. [2, 6]: 0.002 µmol/kg
LUNG Mean Conc. [2, 6]: 1.07 ng/g
LIVER Conc. [2, 7]: 0.013 µmol/kg
LIVER Mean Conc. [2, 7]: 6.18 ng/g
LUNG Conc. [2, 7]: 0.003 µmol/kg
LUNG Mean Conc. [2, 7]: 1.49 ng/g
LIVER Conc. [2, 8]: 0.037 µmol/kg
LIVER Mean Conc. [2, 8]: 17.7 ng/g
LUNG Conc. [2, 8]: 0.006 µmol/kg
LUNG Mean Conc. [2, 8]: 2.90 ng/g
SPLEEN Conc. [2, 8]: 0.002 µmol/kg
SPLEEN Mean Conc. [2, 8]: 1.12 ng/g
LIVER Conc. [2, 9]: 0.117 µmol/kg
LIVER Mean Conc. [2, 9]: 56.5 ng/g
LUNG Conc. [2, 9]: 0.017 µmol/kg
LUNG Mean Conc. [2, 9]: 8.11 ng/g
SPLEEN Conc. [2, 9]: 0.012 µmol/kg
SPLEEN Mean Conc. [2, 9]: 5.60 ng/g
LIVER Conc. [2, 10]: 0.192 µmol/kg
LIVER Mean Conc. [2, 10]: 92.2 ng/g
LUNG Conc. [2, 10]: 0.020 µmol/kg
LUNG Mean Conc. [2, 10]: 9.70 ng/g
SPLEEN Conc. [2, 10]: 0.018 µmol/kg
SPLEEN Mean Conc. [2, 10]: 8.81 ng/g
LIVER Conc. [2, 11]: 0.316 µmol/kg
LIVER Mean Conc. [2, 11]: 152 ng/g
LUNG Conc. [2, 11]: 0.037 µmol/kg
LUNG Mean Conc. [2, 11]: 17.9 ng/g
SPLEEN Conc. [2, 11]: 0.032 µmol/kg
SPLEEN Mean Conc. [2, 11]: 15.3 ng/g
LIVER Conc. [2, 12]: 0.437 µmol/kg
LIVER Mean Conc. [2, 12]: 210 ng/g
LUNG Conc. [2, 12]: 0.071 µmol/kg
LUNG Mean Conc. [2, 12]: 34.2 ng/g
SPLEEN Conc. [2, 12]: 0.064 µmol/kg
SPLEEN Mean Conc. [2, 12]: 30.6 ng/g
LIVER Conc. [2, 13]: 0.527 µmol/kg
LIVER Mean Conc. [2, 13]: 253 ng/g
LUNG Conc. [2, 13]: 0.097 µmol/kg
LUNG Mean Conc. [2, 13]: 46.6 ng/g
SPLEEN Conc. [2, 13]: 0.093 µmol/kg
SPLEEN Mean Conc. [2, 13]: 44.9 ng/g
LIVER Conc. [2, 14]: 0.193 µmol/kg
LIVER Mean Conc. [2, 14]: 93.0 ng/g
LUNG Conc. [2, 14]: 0.138 µmol/kg
LUNG Mean Conc. [2, 14]: 66.1 ng/g
SPLEEN Conc. [2, 14]: 0.175 µmol/kg
SPLEEN Mean Conc. [2, 14]: 84.3 ng/g
LIVER Conc. [2, 15]: 0.174 µmol/kg
LIVER Mean Conc. [2, 15]: 83.6 ng/g
LUNG Conc. [2, 15]: 0.133 µmol/kg
LUNG Mean Conc. [2, 15]: 64.1 ng/g
SPLEEN Conc. [2, 15]: 0.193 µmol/kg
SPLEEN Mean Conc. [2, 15]: 92.5 ng/g
LIVER Conc. [2, 16]: 0.073 µmol/kg
LIVER Mean Conc. [2, 16]: 34.9 ng/g
LUNG Conc. [2, 16]: 0.078 µmol/kg
LUNG Mean Conc. [2, 16]: 37.4 ng/g
SPLEEN Conc. [2, 16]: 0.139 µmol/kg
SPLEEN Mean Conc. [2, 16]: 66.6 ng/g
LIVER Conc. [2, 17]: 0.044 µmol/kg
LIVER Mean Conc. [2, 17]: 21.2 ng/g
LUNG Conc. [2, 17]: 0.049 µmol/kg
LUNG Mean Conc. [2, 17]: 23.7 ng/g
SPLEEN Conc. [2, 17]: 0.094 µmol/kg
SPLEEN Mean Conc. [2, 17]: 45.2 ng/g
LIVER Conc. [2, 18]: 0.028 µmol/kg
LIVER Mean Conc. [2, 18]: 13.5 ng/g
LUNG Conc. [2, 18]: 0.030 µmol/kg
LUNG Mean Conc. [2, 18]: 14.3 ng/g
SPLEEN Conc. [2, 18]: 0.058 µmol/kg
SPLEEN Mean Conc. [2, 18]: 28.1 ng/g
half-life ([2]; male, mouse, in vivo, single oral 0.1 mg/kg, BALB/c mice, read-out: calculated half-life (converted)): 35 h
plasma concentrations ([2]; single oral 0.1 mg/kg, male BALB/c mice, UPLC-MS/MS): mostly below the level limit of quantification
inhibition of viral entry [3]: neither emetine nor GCV inhibited viral entry
anti-HCMV activity when added after infection (add-on) ([4]; addition after 12 h): loss of activity against HCMV
time compound is required to fully inhibit HCMV (removal assay) ([4]; plaque assay): at least 24 h
increase in pp28-luciferase activity, second cycle infection, compared to infected control ([5]; 0.5 million cells/plate): 1.5 fold
pp28-luciferase activity, second cycle infection, compared to infected control ([5]; 1 and 2 million cells/plate): near complete inhibition
